Experimental data published in US20050112198A1, “Bupropion formulation for sustained delivery” (priority 2003, published 2005).

Experiments:
[1] = In-house drug-excipient compatibility / storage stability of bupropion hydrochloride; format: physicochemical; conditions: for degradation of active drug in drug-excipient mixtures: 50° C./75% RH and 40° C./75% RH
Procedure: In order to study the compatibility of various excipients used in the proposed invention with bupropion hydrochloride, various drug-excipient mixtures were prepared. The each excipient amount relative to drug varied from 1:1 to 1:10. […] As predicted with the active drug, it has been observed during their analysis at various time intervals by liquid chromatography that most of the excipients studied are causing degradation of the active drug with a result of two distinct degradation peaks, in which all cellulose based excipients considered to be interacting uniquely with the pure drug compared to non-cellulose based excipients. […] The above changes were more pronounced in samples studied under open conditions compared to closed condition samples. […] Such degradation could be due to impurities like peroxide, heavy metals and bleaching agents present in such materials. Even though such impurities are present within acceptable limits, the moisture content carried in them should have acted as solvent to aggravate such reactions. […] The package component seems to play a vital role for stabilizing the dosage form: high-density polyethylene (HDPE) containers with additional thickness/weight are preferred apart from maintaining sufficient quantity of adsorbent added to the packaging system to minimize moisture and oxygen/odor levels.

[2] = crystalline solid; cited from earlier work

Question: Which “stability of the salt form alone” value ([1]; in-house studies, normal storage conditions, without excipients) does the source give for `CC(NC(C)(C)C)C(=O)c1cccc(Cl)c1.Cl` (racemic) [Bupropion hydrochloride, (±)-1-(3-chlorophenyl)-2-[(1,1-dimethylethyl)amino]-1-propanone hydrochloride] here?
Answer: stable in normal storage conditions

Question: And the “degradation of active drug in drug-excipient mixtures” value ([1]; mixtures with Kollidon VA64, Kollidon SR, methylcellulose, colloidal silicon dioxide, magnesium stearate, enteric coating materials)?
Answer: minimum amount or no change

Question: And the “degradation of active drug in drug-excipient mixtures” value ([1]; mixtures with hydroxypropyl cellulose, polyethylene oxide and sodium carboxymethyl cellulose, 1:1 to 1:10, liquid chromatography)?
Answer: rapid degradation

Question: And the water solubility [2]?
Answer: water soluble
